According to US20240226107A1, “UBIQUITIN-SPECIFIC PROTEASE 1 (USP1) INHIBITOR” (SIMCERE ZAIMING PHARMACEUTICAL CO., LTD., priority 2021, published 2024):

How the values were obtained:
[1] = molecular target: USP1 (Recombinant Human His6-USP1/His6-UAF1 Complex Protein) (Homo sapiens (Human), UniProt O94782); experiment: In vitro activity assay for USP1 (Ub-CHOP2-Reporter deubiquitination assay); type: biochemical; conditions: 0.5 h incubation at room temperature, read-out: In vitro inhibitory activity of USP1 IC50
Description: The assay kit (Ub-CHOP2-Reporter Deubiquitination Assay Kit) was purchased from Lifesensors, with Cat. No. of PR1101. The assay kit was subpackaged and stored at −80° C.
Each compound to be tested was dissolved with DMSO to 10 mM. The compound and pure DMSO (with a total volume of 50 nL) were loaded to each well of the 384-well plate by using an ECHO instrument to obtain gradient-diluted sample concentrations at different ratios. The enzyme was diluted with a freshly prepared reaction solution (20 mM Tris-HCl (pH 8.0), 2 mM CaCl2, 2 mM β-mercaptoethanol, 0.05% CHAPS, and ddH2O). To each well, 5 μL of diluted enzyme reaction solution was added, then the plate was centrifuged and oscillated to mix the enzyme and the compound, and the mixture was centrifuged again and placed on ice. The kit reporter system and the substrate were diluted with the reaction solution, then 5 μL of diluted liquid was added to each well, and mixed by centrifugation. The mixture was incubated at room temperature for 0.5 h. […] The inhibitory activity (IC50 values) of the compound on enzyme activity was calculated by using a four-parameter Logistic Model. […] A, B, C, and D are four parameters.
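Wherever GI50 is given: MDA-MB-436 proliferation over 7 days with compound, viability read as ATP luminescence (CellTiter-Glo), inhibition relative to DMSO-only wells, day 0 signal as background, GI50 from four-parameter fit.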

Chain of USP1 (Recombinant Human His6-USP1/His6-UAF1 Complex Protein) (O94782 whole entry): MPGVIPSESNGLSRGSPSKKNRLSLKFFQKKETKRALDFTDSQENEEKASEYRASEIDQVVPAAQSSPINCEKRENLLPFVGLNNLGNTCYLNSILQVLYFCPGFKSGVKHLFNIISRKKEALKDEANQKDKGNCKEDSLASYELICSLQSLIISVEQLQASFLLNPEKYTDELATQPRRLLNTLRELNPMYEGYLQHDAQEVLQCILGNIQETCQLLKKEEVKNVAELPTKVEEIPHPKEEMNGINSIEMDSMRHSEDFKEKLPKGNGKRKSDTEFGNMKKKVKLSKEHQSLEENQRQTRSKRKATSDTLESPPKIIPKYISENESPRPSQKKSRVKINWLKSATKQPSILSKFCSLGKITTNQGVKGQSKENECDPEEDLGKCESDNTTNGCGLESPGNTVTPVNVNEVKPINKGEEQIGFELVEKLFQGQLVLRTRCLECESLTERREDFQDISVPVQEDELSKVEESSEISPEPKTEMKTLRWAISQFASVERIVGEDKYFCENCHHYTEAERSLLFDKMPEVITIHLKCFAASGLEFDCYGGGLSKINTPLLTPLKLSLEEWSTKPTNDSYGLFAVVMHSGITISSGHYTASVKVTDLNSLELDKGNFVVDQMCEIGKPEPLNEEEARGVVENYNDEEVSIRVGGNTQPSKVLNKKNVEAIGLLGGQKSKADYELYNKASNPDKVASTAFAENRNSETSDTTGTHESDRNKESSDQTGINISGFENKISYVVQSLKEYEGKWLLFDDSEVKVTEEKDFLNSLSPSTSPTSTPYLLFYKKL
Chain of USP1 (Recombinant Human His6-USP1/His6-UAF1 Complex Protein) (Q8TAF3 whole entry partner): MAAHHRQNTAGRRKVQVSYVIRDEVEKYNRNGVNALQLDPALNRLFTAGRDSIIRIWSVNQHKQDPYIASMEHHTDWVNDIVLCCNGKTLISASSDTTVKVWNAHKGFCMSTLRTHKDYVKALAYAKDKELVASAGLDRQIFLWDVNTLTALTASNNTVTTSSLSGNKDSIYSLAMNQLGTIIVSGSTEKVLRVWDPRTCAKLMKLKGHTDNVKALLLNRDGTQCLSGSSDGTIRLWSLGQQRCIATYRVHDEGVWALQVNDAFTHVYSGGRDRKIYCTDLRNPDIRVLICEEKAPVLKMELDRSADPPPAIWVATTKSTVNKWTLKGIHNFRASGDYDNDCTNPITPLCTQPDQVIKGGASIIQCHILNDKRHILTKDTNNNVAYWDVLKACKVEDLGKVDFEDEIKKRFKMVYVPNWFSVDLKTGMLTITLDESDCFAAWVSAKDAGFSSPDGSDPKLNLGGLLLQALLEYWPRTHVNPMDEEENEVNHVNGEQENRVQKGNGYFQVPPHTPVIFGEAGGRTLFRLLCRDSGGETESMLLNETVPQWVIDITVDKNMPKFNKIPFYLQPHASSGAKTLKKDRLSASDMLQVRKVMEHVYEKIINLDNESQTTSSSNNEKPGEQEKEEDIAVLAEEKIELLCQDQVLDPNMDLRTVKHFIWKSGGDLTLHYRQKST

COc1ncnc(C2CC2)c1-c1ncc2c(n1)N(Cc1ccc(-c3nc(C(F)(F)F)cn3C)cc1)CC(=O)N2 [Compound 5, 2-(4-cyclopropyl-6-methoxypyrimidin-5-yl)-8-(4-(1-methyl-4-(trifluoromethyl)-1H-imidazol-2-yl)benzyl)-7,8-dihydropteridin-6(5H)-one]
GI50 (MDA-MB-436 cells): 152 nM | IC50 [1]: 43.7 nM

COc1ncnc(C2CC2)c1-c1ncc2c(n1)N(Cc1c(F)cc(-c3nc(C(F)(F)F)cn3C)cc1F)CCO2 [Compound 10, 2-(4-cyclopropyl-6-methoxypyrimidin-5-yl)-8-(2,6-difluoro-4-(1-methyl-4-(trifluoromethyl)-1H-imidazol-2-yl)benzyl)-7,8-dihydro-6H-pyrimido[5,4-b][1,4]oxazine]
GI50 (MDA-MB-436 cells): 507 nM | IC50 [1]: 106 nM

COc1ncnc(C2CC2)c1-c1ncc2c(n1)N(Cc1ccc(-c3nc(C(F)(F)F)cn3C)cc1)CC(C)O2 (stereo not shown) [Compound 15, 2-(4-cyclopropyl-6-methoxypyrimidin-5-yl)-6-methyl-8-(4-(1-methyl-4-(trifluoromethyl)-1H-imidazol-2-yl)benzyl)-7,8-dihydro-6H-pyrimido[5,4-b][1,4]oxazine]
GI50 (MDA-MB-436 cells): 20.1 nM | IC50 [1]: 34 nM

COc1ncnc(C2CC2)c1-c1ncc2c(n1)N(Cc1ccc(-c3nc(C(F)(F)F)cn3C)cc1)C(=O)C(C)O2 (stereo not shown) [Compound 21, 2-(4-cyclopropyl-6-methoxypyrimidin-5-yl)-6-methyl-8-(4-(1-methyl-4-(trifluoromethyl)-1H-imidazol-2-yl)benzyl)-6H-pyrimido[5,4-b][1,4]oxazin-7(8H)-one]
GI50 (MDA-MB-436 cells): 97.5 nM | IC50 [1]: 16.7 nM

COc1ncnc(C2CC2)c1-c1ncc2c(n1)N(Cc1ccc(-c3nc(C(F)(F)F)cn3C)cc1)C(C)CO2 (stereo not shown) [Compound 23, 2-(4-cyclopropyl-6-methoxypyrimidin-5-yl)-7-methyl-8-(4-(1-methyl-4-(trifluoromethyl)-1H-imidazol-2-yl)benzyl)-7,8-dihydro-6H-pyrimido[5,4-b][1,4]oxazine]
GI50 (MDA-MB-436 cells): 32.5 nM | IC50 [1]: 21.9 nM

COc1ncnc(C2CC2)c1-c1ncc2c(n1)N(Cc1ccc(-c3nc(C(F)(F)F)cn3C)cc1)CC(=O)N2CC(F)(F)F [Compound 25, 2-(4-cyclopropyl-6-methoxypyrimidin-5-yl)-5-(2,2,2-trifluoroethyl)-8-(4-(1-methyl-4-(trifluoromethyl)-1H-imidazol-2-yl)benzyl)-7,8-dihydropteridin-6(5H)-one]
GI50 (MDA-MB-436 cells): 84.8 nM | IC50 [1]: 27.2 nM

COc1ncnc(C2CC2)c1-c1ncc2c(n1)N(Cc1ccc(-c3nc(C(F)(F)F)cn3C)cc1)C(=O)N(C)C2 [Compound 29, 7-(4-cyclopropyl-6-methoxypyrimidin-5-yl)-3-methyl-1-(4-(1-methyl-4-(trifluoromethyl)-1H-imidazol-2-yl)benzyl)-3,4-dihydropyrimido[4,5-d]pyrimidin-2(1H)-one]
GI50 (MDA-MB-436 cells): 24.4 nM | IC50 [1]: 20 nM

CCN1C(=O)CN(Cc2ccc(-c3nc(C(F)(F)F)cn3CC)cc2)c2nc(-c3c(OC)ncnc3C3CC3)ncc21 [Compound 34, 2-(4-cyclopropyl-6-methoxypyrimidin-5-yl)-5-ethyl-8-(4-(1-ethyl-4-(trifluoromethyl)-1H-imidazol-2-yl)benzyl)-7,8-dihydropteridin-6(5H)-one]
GI50 (MDA-MB-436 cells): 39.6 nM | IC50 [1]: 18.9 nM

COc1ncnc(C2CC2)c1-c1ncc2c(=O)n(C)c(=O)n(Cc3ccc(-c4nc(C(F)(F)F)cn4C)cc3)c2n1 [Compound 35, 7-(4-cyclopropyl-6-methoxypyrimidin-5-yl)-3-methyl-1-(4-(1-methyl-4-(trifluoromethyl)-1H-imidazol-2-yl)benzyl)pyrimido[4,5-d]pyrimidine-2,4(1H,3H)-dione]
GI50 (MDA-MB-436 cells): 364 nM | IC50 [1]: 69.5 nM

COc1ncnc(C2CC2)c1-c1ncc2c(n1)N(Cc1ccc(-c3nc(C(F)(F)F)cn3C)cc1)CN(C)C2=O [Compound 36, 7-(4-cyclopropyl-6-methoxypyrimidin-5-yl)-3-methyl-1-(4-(1-methyl-4-(trifluoromethyl)-1H-imidazol-2-yl)benzyl)-2,3-dihydropyrimido[4,5-d]pyrimidin-4(1H)-one]
GI50 (MDA-MB-436 cells): 546 nM | IC50 [1]: 82.7 nM

COc1ncnc(C2CC2)c1-c1ncc2c(n1)N(Cc1ccc(-c3nc(C(F)(F)F)cn3C)cc1)C1CCCN1C2=O (stereo not shown) [Compound 42, 2-(4-cyclopropyl-6-methoxypyrimidin-5-yl)-10-(4-(1-methyl-4-(trifluoromethyl)-1H-imidazol-2-yl)benzyl)-8,9,9a,10-tetrahydropyrimido[4,5-d]pyrrolo[1,2-a]pyrimidin-5(7H)-one]
GI50 (MDA-MB-436 cells): 474 nM | IC50 [1]: 86.6 nM

COc1ncnc(C2CC2)c1-c1ncc2c(n1)N(Cc1ccc(-n3nc(C(F)(F)F)cc3C)c(F)c1)CC(=O)N2C [Compound 44, 2-(4-cyclopropyl-6-methoxypyrimidin-5-yl)-5-methyl-8-(3-fluoro-4-(5-methyl-3-(trifluoromethyl)-1H-pyrazol-1-yl)benzyl)-7,8-dihydropteridin-6(5H)-one]
GI50 (MDA-MB-436 cells): 27.5 nM | IC50 [1]: 13.9 nM

Cn1cc(C(F)(F)F)nc1-c1ccc(CN2C(=O)OC(C)(C)c3cnc(-c4c(OC(F)F)ncnc4C4CC4)nc32)cc1F [Compound 57, 7-(4-cyclopropyl-6-(difluoromethoxy)pyrimidin-5-yl)-1-(3-fluoro-4-(1-methyl-4-(trifluoromethyl)-1H-imidazol-2-yl)benzyl)-4,4-dimethyl-1,4-dihydro-2H-pyrimido[4,5-d][1,3]oxazin-2-one]
GI50 (MDA-MB-436 cells): 19.8 nM | IC50 [1]: 8.1 nM

COc1ncnc(C2CC2)c1-c1ncc2c(n1)N(Cc1ccc(-c3nc(C(F)(F)F)cn3C)c(F)c1)C(=O)OC2(C)CO (stereo not shown) [Compound 58, 7-(4-cyclopropyl-6-methoxypyrimidin-5-yl)-1-(3-fluoro-4-(1-methyl-4-(trifluoromethyl)-1H-imidazol-2-yl)benzyl)-4-(hydroxymethyl)-4-methyl-1,4-dihydro-2H-pyrimido[4,5-d][1,3]oxazin-2-one]
GI50 (MDA-MB-436 cells): 81.8 nM | IC50 [1]: 36.9 nM

COc1ncnc(C2CC2)c1-c1ncc2nc(C)c(=O)n(Cc3ccc(-c4nc(C(F)(F)F)cn4C)cc3)c2n1 [Compound 61, 2-(4-cyclopropyl-6-methoxypyrimidin-5-yl)-6-methyl-8-(4-(1-methyl-4-(trifluoromethyl)-1H-imidazol-2-yl)benzyl)pteridin-7(8H)-one]
GI50 (MDA-MB-436 cells): 81.4 nM | IC50 [1]: 36.3 nM

COc1ncnc(C2CC2)c1-c1ncc2c(n1)N(Cc1cc(F)c(-c3nc(C(F)(F)F)cn3C)c(F)c1)CCO2 [Compound 62]
GI50 (MDA-MB-436 cells): 12.3 nM | IC50 [1]: 9.8 nM

COc1ncnc(C2CC2)c1-c1ncc2c(n1)N(Cc1cc(F)c(-c3nc(C(F)(F)F)cn3C)cc1F)CCO2 [Compound 63]
GI50 (MDA-MB-436 cells): 24.5 nM | IC50 [1]: 11.3 nM

COc1ncnc(C2CC2)c1-c1ncc2c(n1)N(Cc1ccc(-c3nc(C(F)(F)F)cn3C)c(F)c1)CC(=O)N2C [Compound 65, 2-(4-cyclopropyl-6-methoxypyrimidin-5-yl)-5-methyl-8-(3-fluoro-4-(1-methyl-4-(trifluoromethyl)-1H-imidazol-2-yl)benzyl)-7,8-dihydropteridin-6(5H)-one]
GI50 (MDA-MB-436 cells): 26.8 nM | IC50 [1]: 28.5 nM

COc1ncnc(C2CC2)c1-c1ncc2c(n1)N(Cc1ccc(-c3nc(C(F)(F)F)cn3C(C)C)c(F)c1)CC(=O)N2C [Compound 67, 2-(4-cyclopropyl-6-methoxypyrimidin-5-yl)-5-methyl-8-(3-fluoro-4-(1-isopropyl-4-(trifluoromethyl)-1H-imidazol-2-yl)benzyl)-7,8-dihydropteridin-6(5H)-one]
GI50 (MDA-MB-436 cells): 17.3 nM | IC50 [1]: 16.8 nM

CCn1cc(C(F)(F)F)nc1-c1ccc(CN2CC(=O)N(C)c3cnc(-c4c(OC)ncnc4C4CC4)nc32)cc1F [Compound 68, 2-(4-cyclopropyl-6-methoxypyrimidin-5-yl)-5-methyl-8-(3-fluoro-4-(1-ethyl-4-(trifluoromethyl)-1H-imidazol-2-yl)benzyl)-7,8-dihydropteridin-6(5H)-one]
GI50 (MDA-MB-436 cells): 27 nM | IC50 [1]: 12.1 nM

COc1ncnc(C2CC2)c1-c1ncc2c(n1)N(Cc1ccc(-c3nc(C(F)(F)F)cn3C)c(F)c1)CC(=O)N2C1CC1 [Compound 71, 2-(4-cyclopropyl-6-methoxypyrimidin-5-yl)-8-(3-fluoro-4-(1-methyl-4-(trifluoromethyl)-1H-imidazol-2-yl)benzyl)-5-cyclopropyl-7,8-dihydropteridin-6(5H)-one]
GI50 (MDA-MB-436 cells): 74.1 nM | IC50 [1]: 71.6 nM

CCn1cc(C(F)(F)F)nc1-c1ccc(CN2CC(=O)N(C3CC3)c3cnc(-c4c(OC)ncnc4C4CC4)nc32)cc1F [Compound 73, 2-(4-cyclopropyl-6-methoxypyrimidin-5-yl)-8-(3-fluoro-4-(1-ethyl-4-(trifluoromethyl)-1H-imidazol-2-yl)benzyl)-5-cyclopropyl-7,8-dihydropteridin-6(5H)-one]
GI50 (MDA-MB-436 cells): 48 nM | IC50 [1]: 45.2 nM

COc1ncnc(C2CC2)c1-c1ncc2c(n1)N(Cc1ccc(-c3nc(C(F)(F)F)cn3C3CC3)c(F)c1)CC(=O)N2C1CC1 [Compound 77, 2-(4-cyclopropyl-6-methoxypyrimidin-5-yl)-8-(3-fluoro-4-(1-cyclopropyl-4-(trifluoromethyl)-1H-imidazol-2-yl)benzyl)-5-cyclopropyl-7,8-dihydropteridin-6(5H)-one]
GI50 (MDA-MB-436 cells): 48.7 nM | IC50 [1]: 18.4 nM
